From US20250026721A1, “COMPOUNDS AND METHODS FOR MODULATING RAS-PI3K” (Vividion Therapeutics, Inc., priority 2023, published 2025)

Tests used:
PIK3CA_C242 = target: T1, PIK3CA_C242 (Homo sapiens, UniProt P42336); assay: Proteomic TE50 (IA-DTB / TMT mass spectrometry) in Jurkat cell lysate; type: binding; settings: 1 hour at rt, 7-point dose response
T1 construct: endogenous in cells; host or cells: Jurkat cell lysate
Method in brief: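 Jurkat lysate (500 μg) treated with compound (7-point, 1:5 dilutions) for 1 h at rt, then labelled with 200 μM IA-DTB for 1 h. After digestion and streptavidin enrichment, the C242 peptide was quantified by targeted MS3 TMT. TE50 was derived from reporter-ion S/N dose-response curves.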

PIK3CA = target: T2, PIK3CA (Homo sapiens, UniProt P42336); assay: In vitro ELISA target engagement assay for PIK3CA in Jurkat cellular lysate (competition with PIK3CA Biotin Probe); type: binding; settings: 1 hour at rt, then 500 nM PIK3CA Biotin Probe, read-out: Elisa Target Engagement Assay (TE50)
T2 construct: endogenous in cells; host or cells: Jurkat cell lysate
Method in brief: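 Jurkat lysate from sonicated frozen cells was preincubated 1 h at rt with serially diluted compound up to 200 μM, then labelled 1 h at rt with PIK3CA biotin probe at 500 nM final. Probe-bound PIK3CA was captured on antibody-coated plates and detected with Neutravidin-HRP luminescence; TE50 derived from the dose response.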

T2 sequence (P42336 whole entry): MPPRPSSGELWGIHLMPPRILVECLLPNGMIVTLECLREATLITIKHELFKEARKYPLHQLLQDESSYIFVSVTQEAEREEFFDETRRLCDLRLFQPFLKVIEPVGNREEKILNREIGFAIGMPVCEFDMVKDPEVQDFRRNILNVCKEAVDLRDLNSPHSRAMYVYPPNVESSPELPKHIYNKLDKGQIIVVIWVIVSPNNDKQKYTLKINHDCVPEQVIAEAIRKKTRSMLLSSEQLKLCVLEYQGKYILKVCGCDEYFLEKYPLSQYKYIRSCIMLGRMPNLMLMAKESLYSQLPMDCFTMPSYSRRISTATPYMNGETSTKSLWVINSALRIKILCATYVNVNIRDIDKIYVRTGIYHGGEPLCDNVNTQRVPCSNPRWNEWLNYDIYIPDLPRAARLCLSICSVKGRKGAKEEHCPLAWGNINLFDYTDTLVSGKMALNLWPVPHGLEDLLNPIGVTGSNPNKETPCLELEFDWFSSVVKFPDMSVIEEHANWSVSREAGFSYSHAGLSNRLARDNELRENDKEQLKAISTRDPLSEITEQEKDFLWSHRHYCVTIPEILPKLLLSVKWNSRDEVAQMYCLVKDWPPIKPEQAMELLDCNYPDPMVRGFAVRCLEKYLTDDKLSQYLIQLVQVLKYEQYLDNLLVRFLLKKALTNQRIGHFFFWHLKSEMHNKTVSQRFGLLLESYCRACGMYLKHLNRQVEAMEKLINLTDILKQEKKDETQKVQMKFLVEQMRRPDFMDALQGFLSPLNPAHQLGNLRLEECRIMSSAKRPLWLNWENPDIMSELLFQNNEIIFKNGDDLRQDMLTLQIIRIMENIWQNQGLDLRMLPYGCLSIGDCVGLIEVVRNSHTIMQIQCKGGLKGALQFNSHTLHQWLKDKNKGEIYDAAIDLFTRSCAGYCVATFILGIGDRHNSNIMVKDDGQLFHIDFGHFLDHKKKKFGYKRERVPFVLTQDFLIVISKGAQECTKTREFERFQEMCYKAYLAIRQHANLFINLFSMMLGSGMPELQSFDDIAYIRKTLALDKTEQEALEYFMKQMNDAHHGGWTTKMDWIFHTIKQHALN
T2 sequence (P27986 whole entry partner): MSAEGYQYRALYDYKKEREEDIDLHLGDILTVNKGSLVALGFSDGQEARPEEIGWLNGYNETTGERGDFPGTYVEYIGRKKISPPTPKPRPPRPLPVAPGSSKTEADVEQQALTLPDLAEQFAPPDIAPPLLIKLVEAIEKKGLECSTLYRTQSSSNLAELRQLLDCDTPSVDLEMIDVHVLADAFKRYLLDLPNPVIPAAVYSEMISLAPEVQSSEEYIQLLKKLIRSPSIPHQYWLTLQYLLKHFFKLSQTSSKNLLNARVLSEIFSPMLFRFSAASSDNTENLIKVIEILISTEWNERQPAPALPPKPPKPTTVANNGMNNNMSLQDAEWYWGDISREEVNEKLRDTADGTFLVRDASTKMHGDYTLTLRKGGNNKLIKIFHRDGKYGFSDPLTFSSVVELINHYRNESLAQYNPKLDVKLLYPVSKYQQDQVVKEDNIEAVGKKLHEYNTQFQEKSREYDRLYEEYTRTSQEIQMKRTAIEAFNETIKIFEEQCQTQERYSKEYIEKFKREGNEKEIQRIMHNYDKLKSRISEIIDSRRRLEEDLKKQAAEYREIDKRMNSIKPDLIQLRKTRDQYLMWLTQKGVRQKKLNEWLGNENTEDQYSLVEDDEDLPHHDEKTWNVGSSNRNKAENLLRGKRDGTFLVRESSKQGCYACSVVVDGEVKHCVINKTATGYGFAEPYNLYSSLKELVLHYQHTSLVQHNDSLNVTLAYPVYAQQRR
T1 sequence (P42336 whole entry): as the sequence (P42336 whole entry) above
T1 sequence (P27986 whole entry partner): as the sequence (P27986 whole entry partner) above

COc1ccc(S(=O)(=O)N2CCC(F)(C(=O)N[C@H](C)/C=C\S(C)(=O)=O)CC2)c(-c2ccc(F)cc2Cl)c1 [Compound 27, (R,Z)-1-((2′-chloro-4′-fluoro-5-methoxy-[1,1′-biphenyl]-2-yl)sulfonyl)-4-fluoro-N-(4-(methylsulfonyl)but-3-en-2-yl)piperidine-4-carboxamide]
IC50 (PIK3CA_C242): 430 nM | IC50 (PIK3CA): 450 nM

COc1ccc(S(=O)(=O)N2CCC(F)(C(=O)N[C@H](C)/C=C\S(C)(=O)=O)CC2)c(-c2ccccc2C)c1 [Compound 24, (R,Z)-4-fluoro-1-((5-methoxy-2′-methyl-[1,1′-biphenyl]-2-yl)sulfonyl)-N-(4-(methylsulfonyl)but-3-en-2-yl)piperidine-4-carboxamide]
IC50 (PIK3CA_C242): 232 nM | IC50 (PIK3CA): 170 nM

C[C@@H](/C=C\S(C)(=O)=O)NC(=O)C1(F)CCN(S(=O)(=O)c2ccc(Cl)cc2-c2cccc(CCO)c2)CC1 [Compound 220, (S,Z)-1-((5-chloro-3′-(2-hydroxyethyl)-[1,1′-biphenyl]-2-yl)sulfonyl)-4-fluoro-N-(4-(methylsulfonyl)but-3-en-2-yl)piperidine-4-carboxamide]
IC50 (PIK3CA_C242): 1530 nM | IC50 (PIK3CA): 920 nM

C[C@H](/C=C\S(C)(=O)=O)NC(=O)C1(F)CCN(S(=O)(=O)c2cnc(Cl)cc2-c2ccccc2Cl)CC1 [Compound 231, (R,Z)-1-((6-chloro-4-(2-chlorophenyl)pyridin-3-yl)sulfonyl)-4-fluoro-N-(4-(methylsulfonyl)but-3-en-2-yl)piperidine-4-carboxamide]
IC50 (PIK3CA_C242): 114 nM | IC50 (PIK3CA): 130 nM

Cc1ccccc1-c1cc(N(C)C)ccc1S(=O)(=O)N1CCC(F)(C(=O)N[C@H](C)/C=C\S(C)(=O)=O)CC1 [Compound 93, (R,Z)-1-((5-(dimethylamino)-2′-methyl-[1,1′-biphenyl]-2-yl)sulfonyl)-4-fluoro-N-(4-(methylsulfonyl)but-3-en-2-yl)piperidine-4-carboxamide]
IC50 (PIK3CA_C242): 75.5 nM | IC50 (PIK3CA): 150 nM

COc1cc(-c2ccccc2Cl)c(S(=O)(=O)N2CCC(F)(C(=O)N[C@H](C)/C=C\S(C)(=O)=O)CC2)cc1Cl [Compound 29, (R,Z)-1-((2′,4-dichloro-5-methoxy-[1,1′-biphenyl]-2-yl)sulfonyl)-4-fluoro-N-(4-(methylsulfonyl)but-3-en-2-yl)piperidine-4-carboxamide]
IC50 (PIK3CA_C242): 390 nM | IC50 (PIK3CA): 570 nM

COc1ccc(S(=O)(=O)N2CCC(F)(C(=O)N[C@H](C)/C=C/C#N)CC2)c(-c2ccccc2Cl)c1 [Compound 229, (R,E)-1-((2′-chloro-5-methoxy-[1,1′-biphenyl]-2-yl)sulfonyl)-N-(4-cyanobut-3-en-2-yl)-4-fluoropiperidine-4-carboxamide]
IC50 (PIK3CA_C242): 970 nM | IC50 (PIK3CA): 1100 nM

COc1ccc(S(=O)(=O)N2CCC(F)(C(=O)N[C@H](C)/C=C\S(C)(=O)=O)CC2)c(-c2c(F)cccc2Cl)c1 [Compound 30, 1-((2′-chloro-6′-fluoro-5-methoxy-[1,1′-biphenyl]-2-yl)sulfonyl)-4-fluoro-N-((R,Z)-4-(methylsulfonyl)but-3-en-2-yl)piperidine-4-carboxamide]
IC50 (PIK3CA_C242): 340 nM | IC50 (PIK3CA): 560 nM

COc1cccc(-c2cc(N(C)C)ccc2S(=O)(=O)N2CCC(F)(C(=O)N[C@@H](C)/C=C\S(C)(=O)=O)CC2)c1 (racemic) [Compound 86, 1-[4-(Dimethylamino)-2-(3-methoxyphenyl)phenyl]sulfonyl-4-fluoro-N-[rac-(Z, 1S)-1-methyl-3-methylsulfonyl-allyl]piperidine-4-carboxamide]
IC50 (PIK3CA_C242): 107 nM | IC50 (PIK3CA): 60 nM

COc1ccc(S(=O)(=O)N2CCC(F)(C(=O)N[C@@H](C)/C=C\S(C)(=O)=O)CC2)c(-c2cccc(Cl)c2)c1 [Compound 7, (S,Z)-1-((3′-chloro-5-methoxy-[1,1′-biphenyl]-2-yl)sulfonyl)-4-fluoro-N-(4-(methylsulfonyl)but-3-en-2-yl)piperidine-4-carboxamide]
IC50 (PIK3CA_C242): 107 nM | IC50 (PIK3CA): 90 nM

C=C(C)c1ccc(S(=O)(=O)N2CCC(F)(C(=O)N[C@H](C)/C=C\S(C)(=O)=O)CC2)c(-c2ccccc2Cl)c1 [Compound 109, (R,Z)-1-((2′-chloro-5-(prop-1-en-2-yl)-[1,1′-biphenyl]-2-yl)sulfonyl)-4-fluoro-N-(4-(methylsulfonyl)but-3-en-2-yl)piperidine-4-carboxamide]
IC50 (PIK3CA_C242): 280 nM | IC50 (PIK3CA): 360 nM

C[C@@H](/C=C\S(C)(=O)=O)NC(=O)C1(F)CCN(S(=O)(=O)c2ccc(Cl)cc2-c2cccc(OC3CC3)c2)CC1 [Compound 15, (S,Z)-1-((5-chloro-3′-cyclopropoxy-[1,1′-biphenyl]-2-yl)sulfonyl)-4-fluoro-N-(4-(methylsulfonyl)but-3-en-2-yl)piperidine-4-carboxamide]
IC50 (PIK3CA_C242): 400 nM | IC50 (PIK3CA): 410 nM

C[C@@H](/C=C\S(C)(=O)=O)NC(=O)C1(F)CCN(S(=O)(=O)c2ccc(Cl)cc2-c2cccc(OCc3ccccn3)c2)CC1 [Compound 269, (S,Z)-1-((5-chloro-3′-(pyridin-2-ylmethoxy)-[1,1′-biphenyl]-2-yl)sulfonyl)-4-fluoro-N-(4-(methylsulfonyl)but-3-en-2-yl)piperidine-4-carboxamide]
IC50 (PIK3CA_C242): 63 nM | IC50 (PIK3CA): 90 nM

COc1ccc(S(=O)(=O)N2CCC(F)(C(=O)N[C@H](C)/C=C\S(C)(=O)=O)CC2)c(-c2cccc(F)c2Cl)c1 [Compound 26, (R,Z)-1-((2′-chloro-3′-fluoro-5-methoxy-[1,1′-biphenyl]-2-yl)sulfonyl)-4-fluoro-N-(4-(methylsulfonyl)but-3-en-2-yl)piperidine-4-carboxamide]
IC50 (PIK3CA_C242): 371 nM | IC50 (PIK3CA): 384 nM

N#C/C=C\CNC(=O)C1(F)CCN(S(=O)(=O)c2ccc(Br)cc2-c2ccccc2Cl)CC1 [Compound 70, (Z)-1-((5-bromo-2′-chloro-[1,1′-biphenyl]-2-yl)sulfonyl)-N-(3-cyanoallyl)-4-fluoropiperidine-4-carboxamide]
IC50 (PIK3CA_C242): 70 nM | IC50 (PIK3CA): 95 nM

COc1cc(-c2ccccc2)c(S(=O)(=O)N2CCC(F)(C(=O)N[C@@H](C)/C=C\S(C)(=O)=O)CC2)cn1 [Compound 192, (S,Z)-4-fluoro-1-((6-methoxy-4-phenylpyridin-3-yl)sulfonyl)-N-(4-(methylsulfonyl)but-3-en-2-yl)piperidine-4-carboxamide]
IC50 (PIK3CA_C242): 240 nM | IC50 (PIK3CA): 280 nM

COc1cccc(COc2cccc(-c3cc(Cl)ccc3S(=O)(=O)N3CCC(F)(C(=O)N[C@@H](C)/C=C\S(C)(=O)=O)CC3)c2)c1 [Compound 261, (S,Z)-1-((5-chloro-3′-((3-methoxybenzyl)oxy)-[1,1′-biphenyl]-2-yl)sulfonyl)-4-fluoro-N-(4-(methylsulfonyl)but-3-en-2-yl)piperidine-4-carboxamide]
IC50 (PIK3CA_C242): 730 nM | IC50 (PIK3CA): 480 nM

CCc1ccc(S(=O)(=O)N2CCC(F)(C(=O)N[C@H](C)/C=C\S(C)(=O)=O)CC2)c(-c2ccccc2Cl)c1 [Compound 111, (R,Z)-1-((2′-chloro-5-ethyl-[1,1′-biphenyl]-2-yl)sulfonyl)-4-fluoro-N-(4-(methylsulfonyl)but-3-en-2-yl)piperidine-4-carboxamide]
IC50 (PIK3CA_C242): 210 nM | IC50 (PIK3CA): 320 nM

C[C@H](/C=C\S(C)(=O)=O)NC(=O)C1(F)CCN(S(=O)(=O)c2ccc(N3CCOCC3)cc2-c2ccccc2Cl)CC1 [Compound 121, (R,Z)-1-((2′-chloro-5-morpholino-[1,1′-biphenyl]-2-yl)sulfonyl)-4-fluoro-N-(4-(methylsulfonyl)but-3-en-2-yl)piperidine-4-carboxamide]
IC50 (PIK3CA_C242): 880 nM | IC50 (PIK3CA): 1000 nM

C=Cc1ccc(S(=O)(=O)N2CCC(F)(C(=O)N[C@H](C)/C=C\S(C)(=O)=O)CC2)c(-c2ccccc2Cl)c1 [Compound 107, (R,Z)-1-((2′-chloro-5-vinyl-[1,1′-biphenyl]-2-yl)sulfonyl)-4-fluoro-N-(4-(methylsulfonyl)but-3-en-2-yl)piperidine-4-carboxamide]
IC50 (PIK3CA_C242): 320 nM | IC50 (PIK3CA): 200 nM

C[C@H](/C=C\S(C)(=O)=O)NC(=O)C1(F)CCN(S(=O)(=O)c2ccc(N3CCC3)cc2-c2ccccc2Cl)CC1 [Compound 124, (R,Z)-1-((5-(azetidin-1-yl)-2′-chloro-[1,1′-biphenyl]-2-yl)sulfonyl)-4-fluoro-N-(4-(methylsulfonyl)but-3-en-2-yl)piperidine-4-carboxamide]
IC50 (PIK3CA_C242): 150 nM | IC50 (PIK3CA): 320 nM

COc1ccc(Cl)c(-c2cc(Cl)ccc2S(=O)(=O)N2CCC(F)(C(=O)N[C@@H](C)/C=C\S(C)(=O)=O)CC2)c1 [Compound 16, (S,Z)-1-((2′,5-dichloro-5′-methoxy-[1,1′-biphenyl]-2-yl)sulfonyl)-4-fluoro-N-(4-(methylsulfonyl)but-3-en-2-yl)piperidine-4-carboxamide]
IC50 (PIK3CA_C242): 210 nM | IC50 (PIK3CA): 200 nM

CCCNC(=O)c1cccc(-c2cc(Cl)ccc2S(=O)(=O)N2CCC(F)(C(=O)N[C@@H](C)/C=C\S(C)(=O)=O)CC2)c1 [Compound 279, (S,Z)-1-((5-chloro-3′-(propylcarbamoyl)-[1,1′-biphenyl]-2-yl)sulfonyl)-4-fluoro-N-(4-(methylsulfonyl)but-3-en-2-yl)piperidine-4-carboxamide]
IC50 (PIK3CA_C242): 1530 nM | IC50 (PIK3CA): 1000 nM

CC#Cc1cccc(-c2cc(Cl)ccc2S(=O)(=O)N2CCC(F)(C(=O)N[C@@H](C)/C=C\S(C)(=O)=O)CC2)c1 [Compound 100, (S,Z)-1-((5-chloro-3′-(prop-1-yn-1-yl)-[1,1′-biphenyl]-2-yl)sulfonyl)-4-fluoro-N-(4-(methylsulfonyl)but-3-en-2-yl)piperidine-4-carboxamide]
IC50 (PIK3CA_C242): 96 nM | IC50 (PIK3CA): 99 nM
